Measurements: paper PMC12163485 (Drug Metabolism and Disposition, 2025)
Values joined by “and” are separate entries in the source; they are usually repeats but may differ in a detail not shown here. Equal entries are not always repeated. Where two headings read alike, the source gives them in different places.

Assays:
human OCTN1 (hOCTN1) = target: T1, human OCTN1 (hOCTN1) (Homo sapiens, UniProt Q9H015); test: Uptake of the extended cocktail by HEK293 cells overexpressing hOCTN1; type: in vitro ADME; settings: Fig. 6
T1 construct: expressed in transfected cells
T1 sequence (Q9H015 1-551): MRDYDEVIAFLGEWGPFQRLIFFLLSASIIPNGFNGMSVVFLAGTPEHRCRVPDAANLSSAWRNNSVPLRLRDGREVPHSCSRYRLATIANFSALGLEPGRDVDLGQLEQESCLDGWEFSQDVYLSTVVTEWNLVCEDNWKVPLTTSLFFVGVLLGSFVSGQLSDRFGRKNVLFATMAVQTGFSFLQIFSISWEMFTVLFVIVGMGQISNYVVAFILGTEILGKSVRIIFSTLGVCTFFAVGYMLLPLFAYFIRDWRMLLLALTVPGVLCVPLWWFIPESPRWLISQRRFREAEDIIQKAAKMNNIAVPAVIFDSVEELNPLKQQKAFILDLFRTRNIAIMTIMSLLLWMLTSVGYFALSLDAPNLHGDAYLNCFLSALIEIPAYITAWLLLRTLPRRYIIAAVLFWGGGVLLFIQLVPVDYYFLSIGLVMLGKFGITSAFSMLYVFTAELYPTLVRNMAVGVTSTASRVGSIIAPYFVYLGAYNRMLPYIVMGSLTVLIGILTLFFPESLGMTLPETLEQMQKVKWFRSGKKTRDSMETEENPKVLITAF

human OCTN2 (hOCTN2) = target: T2, human OCTN2 (hOCTN2) (Homo sapiens, UniProt O76082); test: Uptake of the extended cocktail by HEK293 cells overexpressing hOCTN2; type: in vitro ADME; settings: Fig. 6
T2 construct: expressed in transfected cells
T2 sequence (O76082 1-557): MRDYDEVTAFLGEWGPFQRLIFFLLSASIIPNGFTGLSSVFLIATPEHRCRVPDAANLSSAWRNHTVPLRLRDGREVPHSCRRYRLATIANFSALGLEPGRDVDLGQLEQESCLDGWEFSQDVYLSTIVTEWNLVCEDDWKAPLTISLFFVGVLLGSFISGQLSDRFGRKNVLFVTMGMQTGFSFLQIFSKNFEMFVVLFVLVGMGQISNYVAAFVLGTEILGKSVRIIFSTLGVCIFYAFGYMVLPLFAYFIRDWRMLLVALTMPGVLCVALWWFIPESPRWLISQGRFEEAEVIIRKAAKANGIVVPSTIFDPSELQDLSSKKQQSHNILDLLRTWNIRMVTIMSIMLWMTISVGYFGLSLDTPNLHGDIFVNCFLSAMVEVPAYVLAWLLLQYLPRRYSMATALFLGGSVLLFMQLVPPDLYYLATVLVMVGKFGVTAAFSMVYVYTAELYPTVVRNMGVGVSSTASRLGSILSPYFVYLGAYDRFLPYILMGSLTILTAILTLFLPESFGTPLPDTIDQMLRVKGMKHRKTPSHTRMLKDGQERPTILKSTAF

mouse OCT1 [1] = target: T3, mouse OCT1 (Mus musculus, UniProt O08966)
T3 sequence (O08966 1-556): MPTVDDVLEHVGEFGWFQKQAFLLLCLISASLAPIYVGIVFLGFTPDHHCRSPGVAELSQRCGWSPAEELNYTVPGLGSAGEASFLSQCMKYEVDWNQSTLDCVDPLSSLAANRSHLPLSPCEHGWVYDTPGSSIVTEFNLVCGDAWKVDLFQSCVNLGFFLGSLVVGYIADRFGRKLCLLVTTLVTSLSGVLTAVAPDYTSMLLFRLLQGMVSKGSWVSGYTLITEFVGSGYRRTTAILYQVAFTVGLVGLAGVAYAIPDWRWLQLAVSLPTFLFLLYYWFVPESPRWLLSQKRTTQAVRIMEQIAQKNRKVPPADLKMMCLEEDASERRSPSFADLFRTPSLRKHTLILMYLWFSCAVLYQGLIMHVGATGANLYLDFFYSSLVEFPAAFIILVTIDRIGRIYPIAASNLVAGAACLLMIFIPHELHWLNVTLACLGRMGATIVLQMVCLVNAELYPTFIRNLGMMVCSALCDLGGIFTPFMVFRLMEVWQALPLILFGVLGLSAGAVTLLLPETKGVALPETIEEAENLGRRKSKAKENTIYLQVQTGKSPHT
Procedure: Therefore, the calculation method used for hepatic uptake transporters such as organic anion transporting polypeptide (OATP) 1B1 and OATP1B3 was also applied for OCT1.
(§1) Ka was calculated manually based on available pharmacokinetic parameters.

[2] = Pharmacokinetic parameters used for estimating the potential for DDIs; type: in vivo, human; settings: for Imax, portal: Iin,max=Imax+Fa×ka×D/Qh, Qh 97 L/h, Fa 1, Imax for fenoterol and ipratropium; for ka: first-order absorption rate constant, calculated manually from available pharmacokinetic parameters
Procedure: as §1

OCT1 [3] = settings: read-out: inhibitory potency for metformin uptake via OCT1; substrate metformin; ref Ahlin et al, 2011; Panfen et al, 2019; cited from earlier work
[4] = cited from earlier work; for cmax = Imax: dose and route as in Supplemental Table 4, ref Hardman, 2018, fenoterol Tzvetkov et al; for cmax = Imax / fraction unbound: ipratropium Zhang et al, 2023; for fraction unbound: fraction unbound in plasma, ref Hardman, 2018, Lombardo et al (2018), fenoterol Tzvetkov et al; for tmax: p.o., ref Hardman, 2018
human OCT1 (hOCT1) [5] = target: T4, human OCT1 (hOCT1) (Homo sapiens, UniProt O15245); test: Inhibition of OCT1-mediated uptake of the cocktail substrates in HEK293 cells overexpressing human OCT1; settings: for IC50: human OCT1, mean ± SD
T4 sequence (O15245 1-554): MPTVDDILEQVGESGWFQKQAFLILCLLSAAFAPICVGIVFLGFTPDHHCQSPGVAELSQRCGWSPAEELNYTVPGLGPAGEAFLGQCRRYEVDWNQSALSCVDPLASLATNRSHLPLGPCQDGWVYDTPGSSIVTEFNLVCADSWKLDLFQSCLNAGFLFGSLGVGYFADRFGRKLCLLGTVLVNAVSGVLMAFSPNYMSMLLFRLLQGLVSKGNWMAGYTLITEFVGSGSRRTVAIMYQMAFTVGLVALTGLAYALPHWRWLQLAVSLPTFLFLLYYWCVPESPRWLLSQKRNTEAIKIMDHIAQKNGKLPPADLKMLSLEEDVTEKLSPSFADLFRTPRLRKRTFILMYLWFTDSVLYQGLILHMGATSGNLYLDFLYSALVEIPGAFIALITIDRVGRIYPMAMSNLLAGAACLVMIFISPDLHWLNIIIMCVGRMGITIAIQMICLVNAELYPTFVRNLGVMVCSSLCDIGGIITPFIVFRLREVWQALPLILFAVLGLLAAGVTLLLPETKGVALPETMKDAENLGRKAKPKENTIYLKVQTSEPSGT

OCT1 [6] = target: T5, OCT1 (Homo sapiens, UniProt O15245); test: Uptake of the cocktail by HEK293 cells overexpressing human OCT1
T5 sequence (O15245 1-554): T4 sequence (O15245 1-554)
Procedure: (§2) Significance was calculated using Mann–Whitney U test. n = 5–8 independent experiments.

mouse OCT1 [7] = target: T3, mouse OCT1; test: Uptake of the cocktail by HEK293 cells overexpressing mouse Oct1; settings: fold change to the negative control, n = 12
Procedure: as §2

human OCT2 (hOCT2) = target: T6, human OCT2 (hOCT2) (Homo sapiens, UniProt O15244); test: Uptake of the extended cocktail by HEK293 cells overexpressing hOCT2; type: in vitro ADME; settings: Fig. 6
T6 construct: expressed in transfected cells
T6 sequence (O15244 1-555): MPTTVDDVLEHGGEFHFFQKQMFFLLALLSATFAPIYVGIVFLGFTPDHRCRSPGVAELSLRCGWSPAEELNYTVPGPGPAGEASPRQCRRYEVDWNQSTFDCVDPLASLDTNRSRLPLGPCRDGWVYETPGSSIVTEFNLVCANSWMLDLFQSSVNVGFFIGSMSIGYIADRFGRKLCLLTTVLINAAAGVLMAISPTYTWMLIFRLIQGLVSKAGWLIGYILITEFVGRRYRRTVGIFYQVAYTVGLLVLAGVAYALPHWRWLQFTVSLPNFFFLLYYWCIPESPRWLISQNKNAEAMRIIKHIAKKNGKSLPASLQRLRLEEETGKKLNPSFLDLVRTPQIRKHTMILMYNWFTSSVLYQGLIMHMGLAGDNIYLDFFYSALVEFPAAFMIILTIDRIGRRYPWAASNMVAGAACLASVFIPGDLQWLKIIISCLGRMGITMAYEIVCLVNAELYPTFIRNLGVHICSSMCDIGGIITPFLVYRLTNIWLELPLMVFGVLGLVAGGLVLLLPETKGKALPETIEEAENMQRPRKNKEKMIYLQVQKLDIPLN

human OCT1 (hOCT1) [8] = target: T4, human OCT1 (hOCT1)
mOct1 = tested on: mOct1; set-up: method as in ref column References of Table 2 (Morse et al, 2020; Jensen et al, 2020; Meyer et al, 2022); settings: literature values; References of Table 2 (Morse et al, 2020; Jensen et al, 2020; Meyer et al, 2022); cited from earlier work
OCT1 [9] = target: T5, OCT1; test: DDI risk R calculated from IC50 at human OCT1; settings: R=1+fup×Iin,max/IC50, cutoff R ≥ 1.1
human OCT1 (hOCT1) [10] = target: T4, human OCT1 (hOCT1); set-up: expressed in transfected cells; empty vector control pcDNA5; method as in ref column References of Table 2 (Tzvetkov et al, 2018; Morse et al, 2020; Jensen et al, 2020; Meyer et al, 2019, 2022; Wittern et al, 2024 and own unpublished data; Elsby et al, 2017); settings: literature values; References of Table 2 (Tzvetkov et al, 2018; Morse et al, 2020; Jensen et al, 2020; Meyer et al, 2019, 2022; Wittern et al, 2024 and own unpublished data; Elsby et al, 2017); cited from earlier work

Compound: C[N+](C)(C)C[C@H](O)CC(=O)[O-] [L-carnitine]
- transport by OCTN1 (human OCTN1 (hOCTN1)): transported both L-carnitine and L-ergothioneine
- transport by OCTN2 (human OCTN2 (hOCTN2)): transported only L-carnitine

Compound: C=C[C@H]1C[N@@]2CC[C@H]1C[C@@H]2[C@@H](O)c1ccnc2ccc(OC)cc12 [Quinidine, quinidine]
- DDI risk R, victim drug trospium (mouse OCT1 [1]): 1.23
- Imax, portal [2]: 6908 ng/mL
- ka [2]: 1.36 h⁻¹
- IC50 (OCT1 [3]): 7.7 µM
- cmax = Imax [4]: 1300 ng/mL
- fraction unbound [4]: 0.13
- tmax [4]: 2.00 h
- zolmitriptan uptake inhibited more potently than sumatriptan uptake (human OCT1 (hOCT1) [5]): 2.9 fold

Compound: O=C(O[C@H]1C[C@H]2CC[C@@H](C1)[N+]21CCCC1)C(O)(c1ccccc1)c1ccccc1 [Trospium, trospium]
- human OCT1 uptake [fold change to pcDNA5] (OCT1 [6]; cocktail, fold change to the negative control, n = 12): 28.6 fold change to pcDNA5
- transport by OCT1 (OCT1 [6]; extended cocktail, Fig. 6): transported only by OCT1 and OCT2
- mouse Oct1 uptake [fold change to pcDNA5] (mouse OCT1 [7]): 26.9 fold change to pcDNA5
- Imax, portal [2]: 89.63 ng/mL
- ka [2]: 0.273 h⁻¹
- k el ([2]; human, in vivo, po, read-out: ke (converted)): 1.94e-05 s⁻¹
- I max, portal, u ([2]; unbound maximum inhibitor concentration at the inlet of the liver): 0.08 µM
- transport by OCT2 (human OCT2 (hOCT2)): transported only by OCT1 and OCT2
- IC50 (human OCT1 (hOCT1) [8]): 12.4 µM and 8.14 µM
- Km (mOct1): 1.81 µM
- cmax = Imax [4]: 5.20 ng/mL
- fraction unbound [4]: 0.33
- tmax [4]: 6.7 h
- t1/2 ([4]; ref Hardman, 2018, fenoterol Tzvetkov et al): 9.9 h
- DDI risk R, victim drug fenoterol (OCT1 [9]): 1.00
- DDI risk R, victim drug ipratropium (OCT1 [9]): 1.01
- DDI risk R, victim drug metformin (OCT1 [9]): 1.01
- DDI risk R, victim drug methylnaltrexone (OCT1 [9]): 1.01
- DDI risk R, victim drug salbutamol (OCT1 [9]): 1.01
- DDI risk R, victim drug sumatriptan (OCT1 [9]): 1.00
- DDI risk R, victim drug zolmitriptan (OCT1 [9]): 1.01
- Km (human OCT1 (hOCT1) [10]): 16.1 µM
- IC50 (human OCT1 (hOCT1) [5]; IC50 for inhibition of fenoterol uptake, substrate (victim) fenoterol 0.5 μM in cocktail): 15.8 ± 1.87 µM
- IC50 (human OCT1 (hOCT1) [5]; IC50 for inhibition of ipratropium uptake, substrate (victim) ipratropium 0.5 μM in cocktail): 9.37 ± 0.83 µM
- IC50 (human OCT1 (hOCT1) [5]; IC50 for inhibition of methylnaltrexone uptake, substrate (victim) methylnaltrexone 1 μM in cocktail): 14.7 ± 1.95 µM
- IC50 (human OCT1 (hOCT1) [5]; IC50 for inhibition of sumatriptan uptake, substrate (victim) sumatriptan 0.5 μM in cocktail): 16.8 ± 2.03 µM
- IC50 (human OCT1 (hOCT1) [5]; IC50 for inhibition of zolmitriptan uptake, substrate (victim) zolmitriptan 0.5 μM in cocktail): 10 ± 1.59 µM
